We go through six compounds from US20050282743A1, “Molecular interactions in cells” (Arbor Vita Corporation, priority 2001, published 2005).

In one assay the target is T1, ZO-1 2/3 : NET (258L) (Homo sapiens, UniProt Q07157, DEL264-264).
T1 construct: made in house; host or cells: E. coli (DH5α, BL21 or JM109)
The assay is described as follows: G assay with FDA approved drug (Example 7, TABLE 10B). Format: binding. The note with it: OD in absence of drug 0.8; drug concentration per TABLE 11; read after 30 minutes. The method, then: (§1) For certain of the PDZ proteins and PL proteins shown to bind together and for which Kd values had been obtained, additional testing was conducted to determine whether certain pharmaceutical compounds would act to antagonize or agonize the interactions. Assays were conducted as for the G′ assay described supra both in the presence and absence of test compound, except that 50 ul of a 10 uM solution of the biotinylated PL peptide is allowed to react with the surface bearing the PDZ-domain polypeptide instead of a 20 uM solution as specified in step (2) of the assay.
(§2) In both tables, the first column (left to right) entitled “PDZ domain” lists the gene name of GST-PDZ domain fusion (see TABLE 9). Entries having two numbers separated by a slash indicate which PDZ domain was utilized. For example, in TABLE 10A, the entry for ZO-3 is 1/3. This means that PDZ domain 1 of 3 was used.
(§3) The second column labeled “PL” indicates the name of the PDZ ligand (see TABLES 10A and 10B) interacting with the PDZ domain. The third column entitled “Drug” lists the common or trade name of pharmaceutical compound tested and found to modulate the specific PDZ-PL interaction (suppliers and chemical information are listed in TABLE 11). The final column with the heading “Change in OD” indicates the change in absorbance at 450 nm of the assay in the absence (first number) or presence (second number) of chemical compound.
(§4) Many FDA approved drugs have unknown mechanism of function. It is quite possible that some of these drugs function by disrupting or increasing PDZ/PL interactions. This possibility was examined by using the ‘G Assay’ (Example 3 section D). FDA approved drugs were incubated in the presence of the labeled peptide and compared to the same interaction without drug to determine if there was an effect on specific PDZ:PL interactions (drugs added with peptide at step 9 in Example 3D). The primary focus of this experiment was on drugs involved in treatment of depression (amitriptyline, desipramine, trimipramine, benztropine, and nortryptilline) and epilepsy (valproic acid). No modes of action are known for these drugs.
(§5) Therapeutic dose was determined by guidelines given in the Physician's Desk Reference and in the assay, 200 times this amount was used. If a dosage range was given, the upper end of the range was used. Each interaction listed in TABLES 10A & B was tested in the ‘G Assay’ (see Example 3) against each of the drugs listed in TABLE 11. The concentration of GST-fusion protein and peptide used in the assay represent the Kd and were determined by titration. These values can be found in TABLE 7. The drugs were added to the peptide before addition to the well containing the PDZ protein. Otherwise, the assay was carried out as described and read at 450 nm after 30 minutes of developing. For the sequences of the PDZs and PLs used in these tests, see TABLES 8 & 9.
(§6) List of interactions and therapeutics for which a modulation of binding was observed. Concentrations at which the GST-PDZ fusion protein and labeled peptide were used can be found in Table 7 or Table 12.

In assay [1] the test system is Antigen-specific mouse T cells, BR4.2. The assay is described as follows: T cell stimulation assay, MBPAc1-16 and antigen presenting cells, IFNγ ELISA (FIG. 1A). Format: cell-based. The conditions noted are these: 10 μM Tat-peptide; compared to Tat-peptide alone or no peptide. As for the experimental part:
Antigen-specific T cell activation was measured by cytokine production. Fusion peptides containing tat and a T cell surface molecule carboxyl terminus inhibited γ-interferon (IFN) production by a T cell line in response to myelin basic protein (MBP) stimulation. […]
Cell Cultures Cells were maintained and tested in RPMI 1640 media supplemented with 10% fetal calf serum (HyClone), 2 mM glutamine, 10 mM Hepes, 100 U/ml penicillin, 100 μg/ml streptomycin, 0.1 mM non-essential amino acids, 1 mM sodium pyruvate, and 50 μM beta mercaptoethanol.
Supernatants were assayed for cytokine production following activation of T cell lines. […]
IFNγ was measured from cell supernatants, described above, at ambient temperature using the Endogen, Inc. ELISA protocol 3. […] The presence of IFNγ was detected with a biotin-labeled anti-mouse IFNγ monoclonal antibody (MM700B, Endogen, Inc.,). […] The absorbance at 450 nm was measured using a microtiter plate reader (Thermo Max, Molecular Devices) and the concentration of unknown IFNγ from cell supernatants was calculated from a standard curve generated by Softmax Pro software (Molecular Devices).
A general note: In an ELISA, binding on a coated surface is turned into a signal by an enzyme label.

Assay [2] addresses T2, PTPL-1 (4/5) : Presenilin 2 (117L) (Homo sapiens, UniProt Q12923, G1797A).
T2 construct: made in house; host or cells: E. coli (DH5α, BL21 or JM109)
The assay is described as follows: G assay with FDA approved drug (Example 7, TABLE 10B). The conditions noted are these: OD in absence of drug 1.4; drug concentration per TABLE 11; read after 30 minutes. Format: binding. The method, then: as §1, §2, §3, §4, §5, §6

For assay [3], the target named is T3, Hemba 1003117 : Presenilin 2 (117L) (Homo sapiens, UniProt Q96JH8).
T3 construct: made in house; host or cells: E. coli (DH5α, BL21 or JM109)
The assay is described as above. The note with it: OD in absence of drug 1.2; drug concentration per TABLE 11; read after 30 minutes. Format: binding. As for the experimental part: as §1, §2, §3, §4, §5, §6

Assay [4] has as its target T4, Mupp-1 7/13 : Presenilin 2 (117L) (Homo sapiens, UniProt O75970).
T4 construct: Entries having two numbers separated by a slash indicate which PDZ domain was utilized; made in house; host or cells: E. coli (DH5alpha, BL21 or JM109)
Kind of assay: G assay with FDA approved drug (Example 7, TABLES 10A, 10B). Format: binding. The conditions noted are these: OD in absence of drug 0.5; drug concentration per TABLE 11; read after 30 minutes. The method, then:
as §1, §2, §3, §4
as §5, with “For the sequences of the PDZs and PLs used in these tests, see TABLES 8 & 9.” left out

In assay [5] the target is T5, Par 3 3/3 : Presenilin 2 (117L) (Homo sapiens, UniProt Q8TEW0).
T5 construct: made in house; host or cells: E. coli (DH5alpha, BL21 or JM109)
Described as above. Format: binding. The conditions noted are these: OD in absence of drug 0.6; drug concentration per TABLE 11; read after 30 minutes. The method, then:
as §1, §2, §3, §4
as §5, with “For the sequences of the PDZs and PLs used in these tests, see TABLES 8 & 9.” left out

A further assay addresses T6, AF6 : Presenilin (115L) (Homo sapiens, UniProt P55196).
T6 construct: made in house; host or cells: E. coli (DH5alpha, BL21 or JM109)
Kind of assay: G assay with FDA approved drug (Example 7, TABLE 10A). Format: binding. The method, then:
as §1, §2, §3, §4, §5, §6

The test system of assay [6] is hSyntenin : Presenilin (115L). Described as above. Format: binding. The conditions noted are these: OD in absence of drug 1.1; drug concentration per TABLE 11; read after 30 minutes. The method, then:
as §1, §2, §3, §4, §5, §6

Assay [7] deals with T7, ZO-3 1/3 : Presenilin (115L) (Homo sapiens, UniProt O95049).
T7 construct: the entry for ZO-3 is 1/3; This means that PDZ domain 1 of 3 was used; made in house; host or cells: E. coli (DH5alpha, BL21 or JM109)
The description is as above. Format: binding. The conditions noted are these: OD in absence of drug 1.2; drug concentration per TABLE 11; read after 30 minutes. As for the experimental part: as §1, §2, §3, §4, §5, §6

The next assay addresses T8, DVL2 : Presenilin (115L) (Homo sapiens, UniProt O14641).
T8 construct: made in house; host or cells: E. coli (DH5alpha, BL21 or JM109)
Described as above. Format: binding. The conditions noted are these: OD in absence of drug 0.3; drug concentration per TABLE 11; read after 30 minutes. As for the experimental part: as §1, §2, §3, §4, §5, §6

Another assay addresses T9, BAI-1 (2/6) : DNAM (22L) (Homo sapiens, UniProt Q96QZ7).
T9 construct: made in house; host or cells: E. coli (DH5α, BL21 or JM109)
The assay is described as follows: G assay with FDA approved drug (Example 7, TABLE 10B). Format: binding. The note with it: OD in absence of drug 4; drug concentration per TABLE 11; read after 30 minutes. The method, then: as §1, §2, §3, §4, §5, §6

For the next assay, the target named is T10, Atr-P (1/6) : DNAM (22L) (Homo sapiens, UniProt Q86UL8).
T10 construct: made in house; host or cells: E. coli (DH5α, BL21 or JM109)
The assay is described as above. Format: binding. The conditions noted are these: OD in absence of drug 4; drug concentration per TABLE 11; read after 30 minutes. The method, then: as §1, §2, §3, §4, §5, §6

Another assay addresses T11, ZO-2 (1/3) : DNAM (22L) (Homo sapiens, UniProt Q9UDY2).
T11 construct: made in house; host or cells: E. coli (DH5α, BL21 or JM109)
T11 sequence (Q9UDY2 27-122): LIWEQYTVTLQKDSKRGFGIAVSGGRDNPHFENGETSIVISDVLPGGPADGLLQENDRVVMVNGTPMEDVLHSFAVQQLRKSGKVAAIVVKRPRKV
The assay is described as above. Format: binding. The method, then: as §1, §2, §3, §4, §5, §6

Assay [8] deals with T12, FLJ10324 : Presenilin 2 (117L) (Homo sapiens, UniProt Q96JH8).
T12 construct: made in house; host or cells: E. coli (DH5alpha, BL21 or JM109)
Kind of assay: G assay with FDA approved drug (Example 7, TABLE 10A). Format: binding. The conditions noted are these: OD in absence of drug 0.4; drug concentration per TABLE 11; read after 30 minutes. As for the experimental part: as §1, §2, §3, §4, §5, §6

The target of another assay is T13, TIP-1 1/1 : LPAP (30L) (Homo sapiens, UniProt O14907).
T13 construct: made in house; host or cells: E. coli (DH5alpha, BL21 or JM109)
Described as above. Format: binding. The note with it: OD in absence of drug 1.1; drug concentration per TABLE 11; read after 30 minutes. The method, then: as §1, §2, §3, §4, §5, §6

Structures can show the parent of a compound that is named as a salt.

T7 sequence (O95049 with tags, fused parts or gaps): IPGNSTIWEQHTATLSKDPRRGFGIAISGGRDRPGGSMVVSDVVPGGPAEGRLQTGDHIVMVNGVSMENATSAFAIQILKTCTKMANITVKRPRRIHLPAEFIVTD
T4 sequence (O75970 with tags, fused parts or gaps): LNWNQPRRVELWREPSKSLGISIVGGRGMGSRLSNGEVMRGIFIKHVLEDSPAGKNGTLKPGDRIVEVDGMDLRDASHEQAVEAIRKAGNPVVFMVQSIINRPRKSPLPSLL
T6 sequence (P55196 1001-1093): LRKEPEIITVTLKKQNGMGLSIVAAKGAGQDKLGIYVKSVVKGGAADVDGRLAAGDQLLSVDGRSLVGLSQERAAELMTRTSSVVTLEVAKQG
T5 sequence (Q8TEW0 579-681): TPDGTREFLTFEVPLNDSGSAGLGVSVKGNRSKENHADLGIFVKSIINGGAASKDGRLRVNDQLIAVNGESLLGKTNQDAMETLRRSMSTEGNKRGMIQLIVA
T8 sequence (O14641 with tags, fused parts or gaps): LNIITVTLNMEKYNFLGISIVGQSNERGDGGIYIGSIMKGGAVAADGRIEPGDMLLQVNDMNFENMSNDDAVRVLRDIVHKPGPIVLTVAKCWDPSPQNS
T12 sequence (Q96JH8 976-1061 limits assumed): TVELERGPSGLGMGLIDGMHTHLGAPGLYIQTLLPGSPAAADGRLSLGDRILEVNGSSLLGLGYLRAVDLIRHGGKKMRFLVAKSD
T13 sequence (O14907 14-116): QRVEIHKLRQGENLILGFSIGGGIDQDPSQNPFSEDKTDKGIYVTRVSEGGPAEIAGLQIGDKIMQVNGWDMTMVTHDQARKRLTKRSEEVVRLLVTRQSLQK
T9 sequence (Q96QZ7 463-566): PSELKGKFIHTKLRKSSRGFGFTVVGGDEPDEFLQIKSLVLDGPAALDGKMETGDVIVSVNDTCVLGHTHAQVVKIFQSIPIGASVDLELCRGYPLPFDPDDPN
T3 sequence (Q96JH8 969-1068): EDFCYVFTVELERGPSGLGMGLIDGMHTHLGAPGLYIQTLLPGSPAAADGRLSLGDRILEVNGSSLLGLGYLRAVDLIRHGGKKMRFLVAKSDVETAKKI
T2 sequence (Q12923 1782-1879 G1797A): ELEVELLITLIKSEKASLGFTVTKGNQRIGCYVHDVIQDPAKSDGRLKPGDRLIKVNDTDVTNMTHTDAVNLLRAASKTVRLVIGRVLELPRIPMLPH
T1 sequence (Q07157 with tags, fused parts or gaps DEL264-264): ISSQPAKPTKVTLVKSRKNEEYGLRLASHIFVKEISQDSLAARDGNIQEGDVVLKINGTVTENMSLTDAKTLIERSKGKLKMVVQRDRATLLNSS
T10 sequence (Q86UL8 408-511): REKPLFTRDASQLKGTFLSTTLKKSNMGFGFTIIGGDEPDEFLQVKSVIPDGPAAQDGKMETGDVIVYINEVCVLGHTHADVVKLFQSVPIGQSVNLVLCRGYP

`CN(C)CCCN1c2ccccc2CCc2ccccc21` [Imipramine, Imipramine HCI]: the “CHANGE IN OD: absorbance at 450 nm in presence of drug” value on ZO-1 2/3 : NET (258L) was in the range of 0.8 to 0.4.

Regarding “GYGRKKRRQRRRGPPSSSSGL [Tat-CD3 fusion peptide]”, the “T cell activation mediated by peptide:MHC (IFNγ production)” value in assay [1] is given as “inhibits T cell activation”.

Consider `CCCC(CCC)C(=O)O` [Valproic Acid, VALPROIC ACID], for which the “CHANGE IN OD: absorbance at 450 nm in presence of drug” value in assay [2] was in the range of 1.4 to 1.1; in [3], 1.2 to 0.8. Besides, the figures for the “Change in OD: absorbance at 450 nm in presence of drug” value in assay [4] and in assay [5] were 0.5 to 0.2 and 0.6 to 0.2, respectively.

As for `CN(C)CCC=C1c2ccccc2CCc2ccccc21` [Amitriptyline, AMITRIPTYLINE HYDROCHLORIDE], the “agonist effect, binding relative to absence of drug” value at AF6 : Presenilin (115L) (AF6 and presenilin-1) came to 4.3 fold. The “Change in OD: absorbance at 450 nm in presence of drug” value on AF6 : Presenilin (115L) (OD in absence of drug 0.4, drug concentration per TABLE 11, read after 30 minutes) is listed as 0.4 to 1.7; in assay [6], 1.1 to 2.7; in assay [7], 1.2 to 3.6; on DVL2 : Presenilin (115L) it was 0.3 to 0.9.

For the compound `CNCCCN1c2ccccc2CCc2ccccc21` [Desipramine, DESIPRAMINE HYDROCHLORIDE], the “CHANGE IN OD: absorbance at 450 nm in presence of drug” value on BAI-1 (2/6) : DNAM (22L) lay in the range of 4 to 1.8; at Atr-P (1/6) : DNAM (22L), 4 to 1.5; on ZO-2 (1/3) : DNAM (22L) (OD in absence of drug 2.1, drug concentration per TABLE 11, read after 30 minutes) it was 2.1 to 0.5. Also, at ZO-2 (1/3) : DNAM (22L) (ZO-2 domain 1 and DNAM-1), the “antagonistic effect, binding relative to absence of drug” value is on record as 4.2 fold. Besides, the “Change in OD: absorbance at 450 nm in presence of drug” value lay in the range of 0.5 to 1.0 in assay [4]; 0.6 to 2.1 in assay [5]; 1.1 to 2.3 in assay [6]; 1.2 to 3.3 in assay [7]; 0.4 to 0.8 in assay [8].

Consider `CN1[C@@H]2CC[C@H]1C[C@@H](OC(c1ccccc1)c1ccccc1)C2` [Benztropine, BENZTROPINE MESYLATE], for which, on TIP-1 1/1 : LPAP (30L), the “Change in OD: absorbance at 450 nm in presence of drug” value lay in the range of 1.1 to 1.6.
